In experiment [1] the target is T1, Amine oxidase [flavin-containing] A (Homo sapiens, UniProt P21397).
T1 sequence (P21397 whole entry): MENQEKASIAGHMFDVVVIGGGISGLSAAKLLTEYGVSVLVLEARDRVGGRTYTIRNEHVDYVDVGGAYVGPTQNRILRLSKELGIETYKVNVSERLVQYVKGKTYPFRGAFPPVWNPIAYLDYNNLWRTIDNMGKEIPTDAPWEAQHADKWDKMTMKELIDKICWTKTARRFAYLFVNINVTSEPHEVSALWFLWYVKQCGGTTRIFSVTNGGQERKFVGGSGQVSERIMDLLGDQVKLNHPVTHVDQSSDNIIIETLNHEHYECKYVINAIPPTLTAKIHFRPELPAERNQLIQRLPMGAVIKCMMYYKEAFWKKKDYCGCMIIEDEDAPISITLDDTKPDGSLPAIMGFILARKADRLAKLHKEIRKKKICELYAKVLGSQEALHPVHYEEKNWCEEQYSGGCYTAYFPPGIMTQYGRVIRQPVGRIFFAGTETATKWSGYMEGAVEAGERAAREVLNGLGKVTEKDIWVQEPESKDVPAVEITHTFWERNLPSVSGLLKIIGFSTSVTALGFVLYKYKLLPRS

The target in experiment [2] is T2, Amine oxidase [flavin-containing] B (Homo sapiens, UniProt P27338).
T2 sequence (P27338 whole entry): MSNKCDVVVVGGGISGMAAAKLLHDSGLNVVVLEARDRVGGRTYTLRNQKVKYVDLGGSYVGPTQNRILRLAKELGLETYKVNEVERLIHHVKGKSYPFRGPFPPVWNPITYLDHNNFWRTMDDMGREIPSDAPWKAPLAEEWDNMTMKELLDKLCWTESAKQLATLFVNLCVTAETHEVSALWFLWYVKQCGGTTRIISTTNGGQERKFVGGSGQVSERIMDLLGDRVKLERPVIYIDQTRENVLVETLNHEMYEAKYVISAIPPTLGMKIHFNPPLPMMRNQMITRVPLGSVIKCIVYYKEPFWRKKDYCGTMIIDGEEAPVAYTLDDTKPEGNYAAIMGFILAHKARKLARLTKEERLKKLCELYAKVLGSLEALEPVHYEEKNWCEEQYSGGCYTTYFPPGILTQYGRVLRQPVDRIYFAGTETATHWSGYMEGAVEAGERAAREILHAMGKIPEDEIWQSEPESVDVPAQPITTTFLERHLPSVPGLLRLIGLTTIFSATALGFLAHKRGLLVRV

Experiment [3] concerns the target T3, Lysine-specific histone demethylase 1A (Homo sapiens, UniProt O60341). Nature of the experiment: Inhibition of human recombinant KDM1A/CoREST expressed in Escherichia coli assessed as reduction in H2O2 release at 22 uM using synthetic mono-methylated H3-K4 peptide (21 amino acids) substrate by horseradish peroxidase coupled enzyme assay.
Experiment [4] deals with T3, Lysine-specific histone demethylase 1A.
The target is the same in experiment [5]. As to the kind of experiment: Inhibition of human recombinant KDM1A/CoREST expressed in Escherichia coli assessed as reduction in H2O2 release at 100 uM using synthetic mono-methylated H3-K4 peptide (21 amino acids) substrate by horseradish peroxidase coupled enzyme assay.
Experiment [6] has the same target. The source holds these as a separate data set.
The target is the same in experiment [7]. Nature of the experiment: Inhibition of KDM1A in human NB4 cells assessed as increase in Gfi-1b mRNA expression up to 100 uM incubated for 24 hrs by quantitative RT-PCR method. It is filed as cell-based. To be noted: NB-4.

Activity calls are given as the source filed them. The calls are words filed in the database; no cut-off is given here. Some results are limits rather than exact numbers.

For the compound `CC[C@@]1(N)C[C@H]1c1ccccc1`, the IC50 in experiment [1] was found to be 6.8 µM; in experiment [2], 33.3 µM.

Regarding `N[C@]1(c2ccccc2)C[C@H]1c1ccccc1`, the IC50 was 0.235 µM in experiment [1] and 5.55 µM in experiment [2].

For the compound `N[C@]1(Cc2ccccc2)C[C@H]1c1ccccc1`, the values for the IC50 in experiment [1] and in experiment [2] were 2.59 µM and 28.1 µM, respectively.

For `CC[C@]1(N)C[C@@H]1c1ccccc1`, the IC50 turned out to be 1.43 µM in experiment [1] and 0.088 µM in experiment [2].

Take `N[C@@]1(c2ccccc2)C[C@@H]1c1ccccc1`: the IC50 in experiment [1] was determined as 0.094 µM; in experiment [2], 11.5 µM.

Take `N[C@@]1(Cc2ccccc2)C[C@@H]1c1ccccc1`: the IC50 in experiment [1] stood at 8.31 µM; in experiment [2] it was 74.3 µM.

Turning to `NCC(=O)c1ccccc1`, in experiment [3], the inhibition turned out to be 30%.

On to `N[C@]1(CCc2ccccc2)C[C@H]1c1ccccc1` (racemic), for which the IC50 in experiment [1] was found to be 0.0214 µM; in experiment [2] it was 0.941 µM.

In the case of `CC[C@@]1(N)C[C@@H]1c1ccccc1` (relative stereo), the IC50 in experiment [1] stood at 1.92 µM; in experiment [2] it was 0.19 µM.

Consider `CCC[C@@]1(N)C[C@H]1c1ccccc1` (relative stereo), for which the IC50 in experiment [1] was 0.527 µM; in experiment [2], 0.6 µM.

Regarding `N[C@@]1(c2ccccc2)C[C@H]1c1ccccc1` (relative stereo), the IC50 in experiment [1] worked out at 0.0828 µM; in experiment [2], 10.4 µM.

In the case of `N[C@]1(Cc2ccccc2)C[C@@H]1c1ccccc1` (relative stereo), the concentration for half-maximal inhibition (IC50) in experiment [1] came out at 3.51 µM; in experiment [2], 50.5 µM.

For the compound `N[C@]1(Cc2ccc3ccccc3c2)C[C@H]1c1ccccc1` (relative stereo), the IC50 is 1.3 µM in experiment [1] and 12.7 µM in experiment [2].

`CCOC(=O)[C@]1(N)C[C@H]1c1ccccc1` (relative stereo) registered an IC50 in experiment [4] of over 100 µM. Moreover, the inhibition in experiment [5] was found to be 11%.

`N[C@@]1(C(=O)O)C[C@H]1c1ccccc1` (relative stereo) showed an IC50 in experiment [4] of over 100 µM. In addition, in experiment [5], the inhibition is 21%.

In the case of `NC[C@@H]1C[C@H]1c1ccccc1` (relative stereo), the inhibition in experiment [5] is 0%.

With `N[C@@H]1C[C@@H]1Oc1ccccc1` (relative stereo), the inhibition in experiment [5] came out at 0%.

`N[C@H]1C[C@@H]1Oc1ccccc1` (relative stereo): the inhibition in experiment [5] is 0%.

With `C#CCN(C)CCCOc1ccc(Cl)cc1Cl` [CLORGILINE], the IC50 result in experiment [6] is reported as “Not Active”. For the same compound, the inhibition entry in experiment [7] was “inactive”.

For orientation: IC50 means the midpoint of a concentration-inhibition curve. A higher IC50 goes with weaker potency. What is called inhibition is the relative decrease from the control value, in per cent.

(Values after ChEMBL document CHEMBL3351849, “Synthesis, biological activity and mechanistic insights of 1-substituted cyclopropylamine derivatives: a novel class of irreversible inhibitors of histone demethylase KDM1A” (Eur J Med Chem, 2014).)
